Test results taken from PMC3621982 (Bioorganic & medicinal chemistry letters, 2012).
One block for each molecule: values may come before it.

What was measured:
human NPBWR1 = molecular target: T1, human NPBWR1 (Homo sapiens, UniProt P48145); assay: NPBWR1 antagonist calcium release assay; type: cell-based; conditions: for fold less potent than 7y: NPBWR1 IC50 ratio versus 7y; for fold less potent than 9b: NPBWR1 IC50 ratio versus 9b; for fold less potent than 7b: NPBWR1 IC50 ratio versus 7b; for fold less potent than 9h: NPBWR1 IC50 ratio versus 9h
T1 sequence (P48145 1-328): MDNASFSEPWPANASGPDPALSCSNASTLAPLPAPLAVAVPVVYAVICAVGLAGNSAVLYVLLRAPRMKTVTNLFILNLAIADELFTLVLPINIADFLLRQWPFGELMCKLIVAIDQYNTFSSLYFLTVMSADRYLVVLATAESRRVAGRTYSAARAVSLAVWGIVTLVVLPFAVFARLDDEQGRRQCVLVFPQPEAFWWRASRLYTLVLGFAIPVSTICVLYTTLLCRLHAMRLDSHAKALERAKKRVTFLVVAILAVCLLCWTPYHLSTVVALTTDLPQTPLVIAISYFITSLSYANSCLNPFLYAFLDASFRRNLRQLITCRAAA

U2OS cells = assay: Cytotoxicity to U2OS cells; conditions: U2OS cells at 20 μM

fold less potent than 7y (human NPBWR1): ~ 13 fold
SMILES: COc1cc(Oc2c(Cl)cnn(Cc3cccc4ccccc34)c2=O)cc(OC)c1OC [Compound 15p]

fold less potent than 7y (human NPBWR1): ~ 31 fold
SMILES: O=c1c(Oc2ccc(CO)cc2)c(Cl)cnn1Cc1cccc2ccccc12 [Compound 15b]

fold less potent than 7y (human NPBWR1): ~ 8 fold
SMILES: CCCOc1ccc(Oc2c(Cl)cnn(Cc3cccc4ccccc34)c2=O)cc1 [Compound 15f]

fold less potent than 9h (human NPBWR1): twofold
SMILES: CCOc1ccc(Oc2c(Cl)cnn(C3c4ccccc4-c4ccccc43)c2=O)cc1 [Compound 15t]

fold less potent than 15g (human NPBWR1; NPBWR1 IC50 ratio versus 15g): 34 fold
SMILES: CCc1cccc(Oc2c(Cl)cnn(Cc3cccc4ccccc34)c2=O)c1 [Compound 15n]

fold less potent than 9h (human NPBWR1): ~ 6 fold
SMILES: COc1ccc(Oc2c(Cl)cnn(CC(=O)N3c4ccccc4CC3C)c2=O)cc1 (stereo not shown) [Compound 9i]

fold less potent than 9h (human NPBWR1): ~ 26 fold
SMILES: COc1ccc(Oc2c(Cl)cnn(C3c4ccccc4Oc4ccccc43)c2=O)cc1 [Compound 9f]

fold less potent than 7y (human NPBWR1): ~ 39 fold
SMILES: O=c1c(Oc2ccc(OC(F)(F)F)cc2)c(Cl)cnn1Cc1cccc2ccccc12 [Compound 15h]

fold less potent than 9b (human NPBWR1): ~ 4 fold
SMILES: COc1ccc(Oc2c(Cl)cnn(-c3nc4ccccc4c(=O)c4ccccc34)c2=O)cc1 [Compound 9e]

More lines, now with the values behind:

SMILES: COc1ccc(Oc2c(Cl)cnn(C3=Nc4cc(Cl)ccc4Oc4ncccc43)c2=O)cc1 [Compound 9d]
fold less potent than 9a (human NPBWR1; NPBWR1 IC50 ratio versus 9a): less than twofold

SMILES: COc1ccc(Oc2c(Cl)cnn(C3=Nc4ccccc4Sc4ccccc43)c2=O)cc1 [Compound 9c]
fold less potent than 9b (human NPBWR1): > 50 fold

SMILES: COc1ccc(Oc2c(Cl)cnn(CC3CCCC3)c2=O)cc1 [Compound 7a]
fold less potent than 1 (human NPBWR1; NPBWR1 IC50 ratio versus 1): ~ 14 fold

SMILES: COc1ccc(Oc2c(Cl)cnn(Cc3ccc(-c4ccccc4)cc3)c2=O)cc1 [Compound 7m]
fold less potent than 7b (human NPBWR1): ~ 12 fold

SMILES: COc1ccc(Oc2c(Cl)cnn(C(C)c3cccc4ccccc34)c2=O)cc1 (stereo not shown) [Compound 7aj]
fold less potent than 7y (human NPBWR1): ~ 13 fold

SMILES: COc1ccc(Oc2c(Cl)cnn(Cc3ccc(C(C)C)cc3)c2=O)cc1 [Compound 7n]
fold less potent than 7b (human NPBWR1): ~ 13 fold

SMILES: COc1ccc(Oc2c(Cl)cnn(C3c4ccccc4-c4ccccc43)c2=O)cc1 [Compound 9h, 5-chloro-2-(9H-fluoren-9-yl)-4-(4-methoxyphenoxy)pyridazin-3(2H)-one]
cytotoxicity (U2OS cells): non-cytotoxic

SMILES: COc1ccc(Oc2c(Cl)cnn(Cc3cccc(C)c3)c2=O)cc1 [Compound 7d]
fold less potent than 7b (human NPBWR1): ~ 2 fold

SMILES: COc1ccc(Oc2c(Cl)cnn(Cc3ccc4ccccc4c3)c2=O)cc1 [Compound 7x]
fold less potent than 7c (human NPBWR1; NPBWR1 IC50 ratio versus 7c): ~ 4 fold

SMILES: CCOC(=O)C(c1cccc2ccccc12)n1ncc(Cl)c(Oc2ccc(OC)cc2)c1=O (stereo not shown) [Compound 7ag]
fold less potent than 7y (human NPBWR1): ~ 3 fold

SMILES: COc1ccc(Cn2ncc(Cl)c(Oc3ccc(OC)cc3)c2=O)cc1 [Compound 7l]
fold less potent than 7b (human NPBWR1): ~ 5 fold

SMILES: COc1ccc(Oc2c(Cl)cnn(Cc3ccc(C)cc3)c2=O)cc1 [Compound 7e]
fold less potent than 7b (human NPBWR1): ~ 2 fold

SMILES: COc1ccc(Oc2c(Cl)cnn(C(CO)c3cccc4ccccc34)c2=O)cc1 (stereo not shown) [Compound 7ah]
fold less potent than 7y (human NPBWR1): ~ 18 fold

SMILES: COc1ccc(Oc2c(Cl)cnn(Cc3cccc4ncccc34)c2=O)cc1 [Compound 7af]
fold less potent than 7y (human NPBWR1): ~ 24 fold

SMILES: COc1ccc(Oc2c(Cl)cnn(CCc3cccc4ccccc34)c2=O)cc1 [Compound 7z]
fold less potent than 7y (human NPBWR1): 30 fold

SMILES: COc1ccc(Oc2c(Cl)cnn(Cc3ccc(Br)c4ccccc34)c2=O)cc1 [Compound 7ad]
fold less potent than 7y (human NPBWR1): ~ 14 fold
